Target: T1, His-tagged recombinant human TrkA (Homo sapiens, UniProt P04629)
T1 construct: 6HIS tagged cytoplasmic domain from Invitrogen, Catalog No. PV3144; purchased Invitrogen PV3144
Assay: TrkA Kinase Binding Assay (LanthaScreen Eu)
Settings: averaged IC50; TR-FRET binding, 60 min, 22° C.; read-out: TrkA Enzyme IC50
Description: TrkA binding activity was determined in a TrkA LanthaScreen™ Eu Kinase Binding Assay. 5 nM His-tagged recombinant human TrkA (6HIS tagged cytoplasmic domain from Invitrogen, Catalog No. PV3144) was incubated with 4 nM Alexa-Fluor® Tracer 236 (Invitrogen Cat. No. PV5592), 2 nM biotinylated anti-His (Invitrogen Cat. No. PV6090), and 2 nM europium-labeled Streptavidin (Invitrogen Cat. No. PV5899), in buffer (25 mM MOPS, pH 7.5, 5 mM MgCl2, 0.005% Triton X-100). Three fold serial dilutions of compounds of the invention in DMSO were added to a final percentage of 2% DMSO. After 60-minute incubation at 22° C., the reaction was measured using the EnVision mutlimode plate reader (PerkinElmer) via TR-FRET dual wavelength detection at […]. The percent of control was calculated using a ratiometric emission factor. The IC50 values were determined by fitting a four parameter model to the percent of control data.
Table A provides averaged IC50 values for compounds of the invention when tested in the assay of Example A, where A represents an averaged IC50 value <100 nM; B represents an averaged IC50 value from 100 to 1,000 nM; and C represents an average 1050 value above 1000 nM.

T1 sequence (P04629 440-796 limits assumed): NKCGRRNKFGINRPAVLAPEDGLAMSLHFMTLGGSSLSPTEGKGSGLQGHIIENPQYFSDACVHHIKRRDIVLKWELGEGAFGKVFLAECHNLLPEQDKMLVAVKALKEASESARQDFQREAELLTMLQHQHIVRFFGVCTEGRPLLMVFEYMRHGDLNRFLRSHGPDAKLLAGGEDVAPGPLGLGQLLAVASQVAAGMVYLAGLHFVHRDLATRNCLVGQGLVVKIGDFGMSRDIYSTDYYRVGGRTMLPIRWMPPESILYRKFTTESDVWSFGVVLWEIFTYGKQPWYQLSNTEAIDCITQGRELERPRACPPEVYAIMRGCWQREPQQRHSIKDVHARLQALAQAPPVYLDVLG

Row | IC50 [nM] | Structure (SMILES)
1 | 100 to 1000 | O=C(Nc1c2c(nn1-c1ccccc1)CCC2)NC(Cc1ccccc1Cl)c1ccccc1 (centres unmarked) [Example 45, 1-(2-(2-chlorophenyl)-1-phenylethyl)-3-(2-phenyl-2,4,5,6-tetrahydrocyclopenta[c]pyrazol-3-yl)urea]
2 | < 100 | O=C(Nc1c2c(nn1-c1ccccc1)CCC2)NC(Cc1ccccc1)Cc1ccccc1Cl (centres unmarked) [Example 46, 1-(1-(2-chlorophenyl)-3-phenylpropan-2-yl)-3-(2-phenyl-2,4,5,6-tetrahydrocyclopenta[c]pyrazol-3-yl)urea]
3 | < 100 | O=C(Nc1c2c(nn1-c1ccccc1)CCC2)NC(Cc1ccccc1)Cc1ccc(F)c(F)c1 (centres unmarked) [Example 47, 1-(1-(3,4-difluorophenyl)-3-phenylpropan-2-yl)-3-(2-phenyl-2,4,5,6-tetrahydrocyclopenta[c]pyrazol-3-yl)urea]
4 | 100 to 1000 | COc1ccccc1CC(Cc1ccccc1)NC(=O)Nc1c2c(nn1-c1ccccc1)CCC2 (centres unmarked) [Example 48, 1-(1-(2-methoxyphenyl)-3-phenylpropan-2-yl)-3-(2-phenyl-2,4,5,6-tetrahydrocyclopenta[c]pyrazol-3-yl)urea]
5 | 100 to 1000 | O=C(Nc1c2c(nn1-c1ccccc1)CCC2)NC(CCC(F)(F)F)Cc1ccccc1 (centres unmarked) [Example 49, 1-(2-phenyl-2,4,5,6-tetrahydrocyclopenta[c]pyrazol-3-yl)-3-(5,5,5-trifluoro-1-phenylpentan-2-yl)urea]
6 | 100 to 1000 | Cc1c(-c2cnn(C)c2)nn(-c2ccccc2)c1NC(=O)NCc1ccccc1-c1ccccc1 [Example 50, 1-([1,1′-biphenyl]-2-ylmethyl)-3-(1′,4-dimethyl-1-phenyl-1H,1′H-[3,4′-bipyrazol]-5-yl)urea]
7 | < 100 | COCc1ccc(OC(F)F)c(CNC(=O)Nc2c(C)c(-c3cncc(OC)c3)nn2-c2ccccc2)c1 [Example 52, 1-(2-(difluoromethoxy)-5-(methoxymethyl)benzyl)-3-(3-(5-methoxypyridin-3-yl)-4-methyl-1-phenyl-1H-pyrazol-5-yl)urea]
8 | < 100 | COCc1ccc(OC(F)(F)F)c(CNC(=O)Nc2c(C)c(-c3ccc(OC)nc3)nn2-c2ccccc2)c1 [Example 53, 1-(5-(methoxymethyl)-2-(trifluoromethoxy)benzyl)-3-(3-(6-methoxypyridin-3-yl)-4-methyl-1-phenyl-1H-pyrazol-5-yl)urea]
9 | < 100 | COCc1ccc(OC(F)(F)F)c(CNC(=O)Nc2c(C)c(-c3cncc(OC)c3)nn2-c2ccccc2)c1 [Example 54, 1-(5-(methoxymethyl)-2-(trifluoromethoxy)benzyl)-3-(3-(5-methoxypyridin-3-yl)-4-methyl-1-phenyl-1H-pyrazol-5-yl)urea]
10 | < 100 | CNC(=O)c1nn(-c2ccccc2)c(NC(=O)NCc2cc(COC)ccc2OC(F)(F)F)c1C [Example 55, 5-(3-(5-(methoxymethyl)-2-(trifluoromethoxy)benzyl)ureido)-N,4-dimethyl-1-phenyl-1H-pyrazole-3-carboxamide]
11 | < 100 | CNC(=O)c1nn(-c2ccccc2)c(NC(=O)NCc2cc(COC)ccc2OC(F)F)c1C [Example 56, 5-(3-(2-(difluoromethoxy)-5-(methoxymethyl)benzyl)ureido)-N,4-dimethyl-1-phenyl-1H-pyrazole-3-carboxamide]
12 | < 100 | COCc1ccc(OC(F)(F)F)c(CNC(=O)Nc2c3c(nn2-c2ccccc2)CSC3)c1 [Example 57, 1-(5-(methoxymethyl)-2-(trifluoromethoxy)benzyl)-3-(2-phenyl-4,6-dihydro-2H-thieno[3,4-c]pyrazol-3-yl)urea]
13 | < 100 | COCc1ccc(OC(F)(F)F)c(CNC(=O)Nc2c3c(nn2-c2ccccc2)CS(=O)(=O)C3)c1 [Example 58, 1-(5,5-dioxido-2-phenyl-4,6-dihydro-2H-thieno[3,4-c]pyrazol-3-yl)-3-(5-(methoxymethyl)-2-(trifluoromethoxy)benzyl)urea]
14 | < 100 | COCc1ccc(OC(F)(F)F)c(CNC(=O)Nc2c(C)c(-c3cnc(OC)nc3)nn2-c2ccccc2)c1 [Example 59, 1-(5-(methoxymethyl)-2-(trifluoromethoxy)benzyl)-3-(3-(2-methoxypyrimidin-5-yl)-4-methyl-1-phenyl-1H-pyrazol-5-yl)urea]
15 | < 100 | COCc1ccc(OC(F)(F)F)c(CNC(=O)Nc2c(C)c(OCCF)nn2-c2ccccc2)c1 [Example 60, 1-(3-(2-fluoroethoxy)-4-methyl-1-phenyl-1H-pyrazol-5-yl)-3-(5-(methoxymethyl)-2-(trifluoromethoxy)benzyl)urea]
16 | < 100 | COCc1ccc(OC(F)(F)F)c(CNC(=O)Nc2c(C)c(OCc3nnc(C)o3)nn2-c2ccccc2)c1 [Example 61]
17 | < 100 | COCc1ccc(OC(F)F)c(CNC(=O)Nc2c(C)c(-c3cnc(OC)nc3)nn2-c2ccccc2)c1 [Example 62, 1-(2-(difluoromethoxy)-5-(methoxymethyl)benzyl)-3-(3-(2-methoxypyrimidin-5-yl)-4-methyl-1-phenyl-1H-pyrazol-5-yl)urea]
18 | < 100 | COCc1ccc(OC(F)(F)F)c(CNC(=O)Nc2c(C)c(OCCO)nn2-c2ccccc2)c1 [Example 63, 1-(3-(2-hydroxyethoxy)-4-methyl-1-phenyl-1H-pyrazol-5-yl)-3-(5-(methoxymethyl)-2-(trifluoromethoxy)benzyl)urea]
19 | < 100 | CNC(=O)c1nn(-c2ccccc2)c(NC(=O)NCc2cc(Br)ccc2OC(F)(F)F)c1C [Example 64, 5-(3-(5-bromo-2-(trifluoromethoxy)benzyl)ureido)-N,4-dimethyl-1-phenyl-1H-pyrazole-3-carboxamide]

Continued, compound first:

Row | Structure (SMILES) | IC50 [nM]
20 | COCc1ccc(C2(F)COC2)c(CNC(=O)Nc2c(C)c(-c3cnn(C)c3)nn2-c2ccccc2)c1 [Example 31, 1-(1′,4-dimethyl-1-phenyl-1H,1′H-[3,4′-bipyrazol]-5-yl)-3-(2-(3-fluorooxetan-3-yl)-5-(methoxymethyl)benzyl)urea] | < 100
21 | COCc1ccc(C2(F)COC2)c(CNC(=O)Nc2c(C)c(-c3ccc(C)nc3)nn2-c2ccccc2)c1 [Example 32, 1-(2-(3-fluorooxetan-3-yl)-5-(methoxymethyl)benzyl)-3-(4-methyl-3-(6-methylpyridin-3-yl)-1-phenyl-1H-pyrazol-5-yl)urea] | 100 to 1000
22 | COCc1ccc(C(C)C)c(CNC(=O)Nc2c(C)c(-c3cnn(C)c3)nn2-c2ccccc2)c1 [Example 34, 1-(1′,4-dimethyl-1-phenyl-1H,1′H-[3,4′-bipyrazol]-5-yl)-3-(2-isopropyl-5-(methoxymethyl)benzyl)urea] | < 100
23 | COCc1ccc(C(C)(C)C)c(CNC(=O)Nc2c(C)c(-c3cnn(C)c3)nn2-c2ccccc2)c1 [Example 35, 1-(2-(tert-butyl)-5-(methoxymethyl)benzyl)-3-(1′,4-dimethyl-1-phenyl-1H,1′H-[3,4′-bipyrazol]-5-yl)urea] | < 100
24 | COCc1cc(CNC(=O)Nc2c(C)c(-c3cnn(C)c3)nn2-c2ccccc2)c(C2CCC2)cn1 [Example 36, 1-((5-cyclobutyl-2-(methoxymethyl)pyridin-4-yl)methyl)-3-(1′,4-dimethyl-1-phenyl-1H,1′H-[3,4′-bipyrazol]-5-yl)urea] | < 100
25 | Cc1c(-c2cnn(C)c2)nn(-c2ccccc2)c1NC(=O)NCc1ccncc1C1CCC1 [Example 37, 1-((3-cyclobutylpyridin-4-yl)methyl)-3-(1′,4-dimethyl-1-phenyl-1H,1′H-[3,4′-bipyrazol]-5-yl)ureaea] | 100 to 1000
26 | COCc1ccc(C2CC(F)(F)C2)c(CNC(=O)Nc2c(C)c(-c3cnn(C)c3)nn2-c2ccccc2)c1 [Example 38, 1-(2-(3,3-difluorocyclobutyl)-5-(methoxymethyl)benzyl)-3-(1′,4-dimethyl-1-phenyl-1H,1′H-[3,4′-bipyrazol]-5-yl)urea] | < 100
27 | Cc1ccccc1CC(NC(=O)Nc1c2c(nn1-c1ccccc1)CCC2)c1ccccc1 (centres unmarked) [Example 39, 1-(2-phenyl-2,4,5,6-tetrahydrocyclopenta[c]pyrazol-3-yl)-3-(1-phenyl-2-o-tolylethyl)urea] | 100 to 1000
28 | O=C(Nc1c2c(nn1-c1ccccc1)CCC2)NC(Cc1ccccc1)c1ccccc1 (centres unmarked) [Example 40, 1-(1,2-diphenylethyl)-3-(2-phenyl-2,4,5,6-tetrahydrocyclopenta[c]pyrazol-3-yl)urea] | 100 to 1000
29 | CC(Cc1ccccc1)(NC(=O)Nc1c2c(nn1-c1ccccc1)CCC2)c1ccccc1 (centres unmarked) [Example 41, 1-(1,2-diphenylpropan-2-yl)-3-(2-phenyl-2,4,5,6-tetrahydrocyclopenta[c]pyrazol-3-yl)urea] | 100 to 1000
30 | O=C(Nc1c2c(nn1-c1ccccc1)CCC2)NC(Cc1ccccc1)Cc1ccccc1 [Example 42, 1-(1,3-diphenylpropan-2-yl)-3-(2-phenyl-2,4,5,6-tetrahydrocyclopenta[c]pyrazol-3-yl)urea] | < 100
31 | Cc1c(-c2cnn(C)c2)nn(-c2ccccc2)c1NC(=O)NCc1cccc2ccccc12 [Example 43, 1-(1′,4-dimethyl-1-phenyl-1H,1′H-3,4′-bipyrazol-5-yl)-3-(naphthalen-1-ylmethyl)urea] | 100 to 1000
32 | Cc1c(-c2cnn(C)c2)nn(-c2ccccc2)c1NC(=O)NCC1CCCc2ccccc21 (centres unmarked) [Example 44, 1-(1′,4-dimethyl-1-phenyl-1H,1′H-3,4′-bipyrazol-5-yl)-3-((1,2,3,4-tetrahydronaphthalen-1-yl)methyl)urea] | < 100

From US9969694B2, “N-(arylalkyl)-N′-pyrazolyl-urea, thiourea, guanidine and cyanoguanidine compounds as TrkA kinase inhibitors” (Array BioPharma Inc., priority 2012, dated 2018)
